Assays:
[1] = target: T1, rat B1R (bradykinin receptor 1) (Rattus norvegicus, UniProt P97583); experiment: FLIPR Ca2+ assay (Fluo-4) on CHO K1 cells stably transfected with the B1R gene of the rat (rB1R cells): % inhibition at 10 μM / IC50, agonist Des-Arg9-bradykinin; assay type: cell-based; conditions: for inhibition at 10 µM: CHO-K1, rat B1R
T1 construct: expressed in transfected cells; host or cells: CHO K1 cells
T1 sequence (P97583 1-337): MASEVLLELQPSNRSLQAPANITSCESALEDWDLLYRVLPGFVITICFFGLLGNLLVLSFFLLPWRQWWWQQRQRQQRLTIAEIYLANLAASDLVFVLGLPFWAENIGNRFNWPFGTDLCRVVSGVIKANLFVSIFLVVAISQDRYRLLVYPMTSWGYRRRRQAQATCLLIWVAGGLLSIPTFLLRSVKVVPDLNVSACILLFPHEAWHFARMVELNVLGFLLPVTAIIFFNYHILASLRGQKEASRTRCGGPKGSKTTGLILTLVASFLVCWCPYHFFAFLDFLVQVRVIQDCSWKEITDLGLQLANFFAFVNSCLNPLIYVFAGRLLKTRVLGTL
Outline: (§1)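 Stably transfected CHO K1 cells loaded with Fluo-4 and read on FLIPR (λex 488, λem 540 nm; peak fluorescence). Test substance (10 μM) added first, then after 10–20 min the agonist at EC80; % inhibition versus maximum achievable inhibition. IC50 from several concentrations, n=2–3, N≥2.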

[2] = target: T2, human B1R (bradykinin receptor 1) (Homo sapiens, UniProt P46663); experiment: FLIPR Ca2+ assay (Fluo-4) on CHO K1 cells stably transfected with the human B1R gene (hB1R cells): % inhibition at 10 μM / IC50, agonist Lys-Des-Arg9-bradykinin; assay type: cell-based; conditions: for inhibition at 10 µM: CHO-K1, human B1R
T2 construct: expressed in transfected cells; host or cells: CHO K1 cells
T2 sequence (P46663 1-353): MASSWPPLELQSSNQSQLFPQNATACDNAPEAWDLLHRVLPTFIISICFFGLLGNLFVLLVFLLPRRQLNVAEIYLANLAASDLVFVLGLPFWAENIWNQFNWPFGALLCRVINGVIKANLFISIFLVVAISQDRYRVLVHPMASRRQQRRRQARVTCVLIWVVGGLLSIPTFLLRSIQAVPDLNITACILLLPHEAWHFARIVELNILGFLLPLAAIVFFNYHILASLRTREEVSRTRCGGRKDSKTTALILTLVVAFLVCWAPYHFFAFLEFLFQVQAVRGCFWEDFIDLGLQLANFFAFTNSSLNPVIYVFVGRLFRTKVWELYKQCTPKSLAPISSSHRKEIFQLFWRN
Outline: as §1

| Compound | inhibition at 10 µM [1] [%] | inhibition at 10 µM [2] [%] | % Inhibition (rat B1R) at 10 μM ([1]; rat B1R) [%] | % Inhibition (human B1R) at 10 μM ([2]; human B1R) [%] |
| --- | --- | --- | --- | --- |
| Cc1nc(CN2CCC3(CC2)CCN(C(=O)c2ccc4c(c2)C(NC(=O)c2ccccc2Cl)CC4)CC3)c[nH]1 (stereo not drawn) [IND_CC-528, 2-Chloro-N-[6-[9-[(2-methyl-1H-imidazol-4-yl)-methyl]-3,9-diazaspiro[5.5]undecane-3-carbonyl]-2,3-dihydro-1H-inden-1-yl]-benzamide] | 102 | 24 |  |  |
| N#Cc1ccccc1CN1CCC2(CC1)CCN(C(=O)c1ccc3c(c1)C(NC(=O)c1ccccc1Cl)CC3)CC2 (stereo not drawn) [IND_CC-535, 2-Chloro-N-[6-[9-[(2-cyano-phenyl)-methyl]-3,9-diazaspiro[5.5]undecane-3-carbonyl]-2,3-dihydro-1H-inden-1-yl]-benzamide] | 90 | 49 |  |  |
| O=C(NC1CCc2ccc(C(=O)N3CCC4(CCN(Cc5ccc(F)c(F)c5)CC4)C3)cc21)c1ccccc1Cl (stereo not drawn) [IND_CC-542, 2-Chloro-N-[6-[8-[(3,4-difluoro-phenyl)-methyl]-2,8-diazaspiro[4.5]decane-2-carbonyl]-2,3-dihydro-1H-inden-1-yl]-benzamide] | 104 | 27 |  |  |
| Cc1nc[nH]c1CN1CCC2(CC1)CCN(C(=O)c1ccc3c(c1)C(NC(=O)c1ccccc1Cl)CC3)C2 (stereo not drawn) [IND_CC-553, 2-Chloro-N-[6-[8-[(5-methyl-3H-imidazol-4-yl)-methyl]-2,8-diazaspiro[4.5]decane-2-carbonyl]-2,3-dihydro-1H-inden-1-yl]-benzamide] | 90 | -2 |  |  |
| O=C(NC1CCc2ccc(C(=O)N3CCC4(CCN(Cc5ccc(F)cc5Cl)CC4)C3)cc21)c1ccccc1Cl (stereo not drawn) [IND_CC-556, 2-Chloro-N-[6-[8-[(2-chloro-4-fluoro-phenyl)-methyl]-2,8-diazaspiro[4.5]decane-2-carbonyl]-2,3-dihydro-1H-inden-1-yl]-benzamide] | 100 | 7 |  |  |
| N#Cc1cccc(CN2CCC3(CC2)CCN(C(=O)c2ccc4c(c2)C(NC(=O)c2ccccc2Cl)CC4)C3)c1 (stereo not drawn) [IND_CC-562, 2-Chloro-N-[6-[8-[(3-cyano-phenyl)-methyl]-2,8-diazaspiro[4.5]decane-2-carbonyl]-2,3-dihydro-1H-inden-1-yl]-benzamide] | 104 | 27 |  |  |
| O=C(NC1CCc2ccc(C(=O)N3CCC4(CCN(Cc5ccc6nccnc6c5)CC4)C3)cc21)c1ccccc1Cl (stereo not drawn) [IND_CC-568, 2-Chloro-N-[6-[8-(quinoxalin-6-yl-methyl)-2,8-diazaspiro[4.5]decane-2-carbonyl]-2,3-dihydro-1H-inden-1-yl]-benzamide] | 105 | 20 |  |  |
| O=C(NC1CCc2ccc(C(=O)N3CCC4(CCN(C(=O)C5CC5)CC4)C3)cc21)c1ccccc1Cl (stereo not drawn) [IND_CC-573, 2-Chloro-N-[6-[8-(cyclopropanecarbonyl)-2,8-diazaspiro[4.5]decane-2-carbonyl]-2,3-dihydro-1H-inden-1-yl]-benzamide] | 100 | 43 |  |  |
| CC(C)(C)CC(=O)N1CCC2(CC1)CCN(C(=O)c1ccc3c(c1)C(NC(=O)c1ccccc1Cl)CC3)C2 (stereo not drawn) [IND_CC-574, 2-Chloro-N-[6-[8-(3,3-dimethyl-butanoyl)-2,8-diazaspiro[4.5]decane-2-carbonyl]-2,3-dihydro-1H-inden-1-yl]-benzamide] | 101 | 14 |  |  |
| O=C(NC1CCc2ccc(C(=O)N3CCC4(CCN(C(=O)Cc5ccc(Cl)cc5)CC4)C3)cc21)c1ccccc1Cl (stereo not drawn) [IND_CC-577, 2-Chloro-N-[6-[8-[2-(4-chlorophenyl)-acetyl]-2,8-diazaspiro[4.5]decane-2-carbonyl]-2,3-dihydro-1H-inden-1-yl]-benzamide] | 96 | 21 |  |  |
| COc1cc(C)c(S(=O)(=O)NC2CCc3ccc(C(=O)N4CCC5(CC4)CCN(c4ccncc4)CC5)cc32)c(C)c1 (stereo not drawn) [Ind_CC-001, 4-methoxy-2,6-dimethyl-N-[6-(9-pyridin-4-yl-3,9-diazaspiro[5.5]undecane-3-carbonyl)-2,3-dihydro-1H-inden-1-yl]-benzenesulfonic acid amide] | 98 | 99 |  |  |
| O=C(NC1CCc2ccc(C(=O)N3CCC4(CC3)CCN(c3ccncc3)CC4)cc21)c1ccccn1 (stereo not drawn) [Ind_CC-002, N-[6-(9-pyridin-4-yl-3,9-diazaspiro[5.5]undecane-3-carbonyl)-2,3-dihydro-1H-inden-1-yl]-pyridine-2-carboxylic acid amide] | 85 | 97 |  |  |
| O=C(NC1CCc2ccc(C(=O)N3CCC4(CC3)CCN(c3ccncc3)CC4)cc21)c1ccccc1C(F)(F)F (stereo not drawn) [Ind_CC-003, N-[6-(9-pyridin-4-yl-3,9-diazaspiro[5.5]undecane-3-carbonyl)-2,3-dihydro-1H-inden-1-yl]-2-(trifluoromethyl)-benzamide] | 101 | 99 |  |  |
| O=C(NC1CCc2ccc(C(=O)N3CCC4(CC3)CCN(c3ccncc3)CC4)cc21)c1sccc1Cl (stereo not drawn) [Ind_CC-004, 3-chloro-N-[6-(9-pyridin-4-yl-3,9-diazaspiro[5.5]undecane-3-carbonyl)-2,3-dihydro-1H-inden-1-yl]-thiophene-2-carboxylic acid amide] | 98 | 99 |  |  |
| O=C(NC1CCc2ccc(C(=O)N3CCC4(CC3)CCN(c3ccncc3)CC4)cc21)c1ccc(Cl)s1 (stereo not drawn) [Ind_CC-005, 5-chloro-N-[6-(9-pyridin-4-yl-3,9-diazaspiro[5.5]undecane-3-carbonyl)-2,3-dihydro-1H-inden-1-yl]-thiophene-2-carboxylic acid amide] | 98 | 97 |  |  |
| O=C(NC1CCc2ccc(C(=O)N3CCC4(CC3)CCN(c3ccncc3)CC4)cc21)c1ccc(Cl)cc1Cl (stereo not drawn) [Ind_CC-006, 2,4-dichloro-N-[6-(9-pyridin-4-yl-3,9-diazaspiro[5.5]undecane-3-carbonyl)-2,3-dihydro-1H-inden-1-yl]-benzamide] | 98 | 98 |  |  |
| O=C(Cc1ccccc1Cl)NC1CCc2ccc(C(=O)N3CCC4(CC3)CCN(c3ccncc3)CC4)cc21 (stereo not drawn) [Ind_CC-007, 2-(2-chlorophenyl)-N-[6-(9-pyridin-4-yl-3,9-diazaspiro[5.5]undecane-3-carbonyl)-2,3-dihydro-1H-inden-1-yl]-acetamide] | 102 | 99 |  |  |
| O=C(/C=C/c1ccccc1Cl)NC1CCc2ccc(C(=O)N3CCC4(CC3)CCN(c3ccncc3)CC4)cc21 (stereo not drawn) [Ind_CC-008, (E)-3-(2-chlorophenyl)-N-[6-(9-pyridin-4-yl-3,9-diazaspiro[5.5]undecane-3-carbonyl)-2,3-dihydro-1H-inden-1-yl]-acrylamide] | 74 | 72 |  |  |
| O=C(NC1CCc2ccc(C(=O)N3CCC4(CC3)CCN(c3ccncc3)CC4)cc21)C(c1ccccc1)c1ccccc1Cl (stereo not drawn) [Ind_CC-009, 2-(2-chlorophenyl)-2-phenyl-N-[6-(9-pyridin-4-yl-3,9-diazaspiro[5.5]undecane-3-carbonyl)-2,3-dihydro-1H-inden-1-yl]-acetamide] | 99 | 87 |  |  |
| O=C(c1ccc2c(c1)C(NS(=O)(=O)c1ccccc1Cl)CC2)N1CCC2(CC1)CCN(c1ccncc1)CC2 (stereo not drawn) [Ind_CC-010, 2-chloro-N-[6-(9-pyridin-4-yl-3,9-diazaspiro[5.5]undecane-3-carbonyl)-2,3-dihydro-1H-inden-1-yl]-benzenesulfonic acid amide] | 100 | 97 |  |  |
| O=C(Nc1ccc(Cl)c(Cl)c1)NC1CCc2ccc(C(=O)N3CCC4(CC3)CCN(c3ccncc3)CC4)cc21 (stereo not drawn) [Ind_CC-011] |  |  | 76 | 36 |
| O=C(NCc1ccccc1Cl)NC1CCc2ccc(C(=O)N3CCC4(CC3)CCN(c3ccncc3)CC4)cc21 (stereo not drawn) [Ind_CC-012, 1-[(2-chlorophenyl)-methyl]-3-[6-(9-pyridin-4-yl-3,9-diazaspiro[5.5]undecane-3-carbonyl)-2,3-dihydro-1H-inden-1-yl]-urea] | 100 | 100 |  |  |
| COc1cc(C)c(C(=O)NC2CCc3ccc(C(=O)N4CCC5(CC4)CCN(c4ccncc4)CC5)cc32)c(C)c1 (stereo not drawn) [Ind_CC-013, 4-methoxy-2,6-dimethyl-N-[6-(9-pyridin-4-yl-3,9-diazaspiro[5.5]undecane-3-carbonyl)-2,3-dihydro-1H-inden-1-yl]-benzamide] | 71 | 68 |  |  |
| CN(C(=O)c1ccccn1)C1CCc2ccc(C(=O)N3CCC4(CC3)CCN(c3ccncc3)CC4)cc21 (stereo not drawn) [Ind_CC-014, N-methyl-N-[6-(9-pyridin-4-yl-3,9-diazaspiro[5.5]undecane-3-carbonyl)-2,3-dihydro-1H-inden-1-yl]-pyridine-2-carboxylic acid amide] | 101 | 93 |  |  |

From patent US8455475B2 (Gruenenthal GmbH, priority 2009, dated 2013)
